Measured values published in patent US7893077B2, “Bisaryl-sulfonamides” (Amgen Inc., priority 2004, dated 2011).

Biological target: T1, PPARγ (Homo sapiens, UniProt P37231)
T1 construct: made in house
T1 sequence (P37231 1-505): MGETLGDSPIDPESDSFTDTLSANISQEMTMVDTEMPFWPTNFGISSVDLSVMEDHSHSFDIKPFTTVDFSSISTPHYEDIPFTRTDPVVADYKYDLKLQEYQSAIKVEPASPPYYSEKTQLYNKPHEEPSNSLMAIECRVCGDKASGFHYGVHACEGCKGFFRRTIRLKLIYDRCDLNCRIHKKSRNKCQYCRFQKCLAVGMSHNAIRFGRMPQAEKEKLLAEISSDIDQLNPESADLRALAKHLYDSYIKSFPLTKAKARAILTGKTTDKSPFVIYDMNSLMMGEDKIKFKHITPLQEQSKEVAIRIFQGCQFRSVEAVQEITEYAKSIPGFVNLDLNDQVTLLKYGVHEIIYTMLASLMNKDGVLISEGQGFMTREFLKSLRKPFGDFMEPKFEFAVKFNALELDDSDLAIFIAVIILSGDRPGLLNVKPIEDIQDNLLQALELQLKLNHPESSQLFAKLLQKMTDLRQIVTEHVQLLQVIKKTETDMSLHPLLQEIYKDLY
Test: PPARγ ligand binding assay utilizing [3H]-BRL 49653 as the radioligand (filtration)
Settings: concentration required to reduce by 50% the specific binding of [3H]-BRL 49653
Description: The compounds of the present invention can be evaluated for modulation of the PPARγ receptor using assays such as those described in Jiang, et al., Nature 391:82-86 (1998), Ricote, et al., Nature 391:79-82 (1998) and Lehmann, et al., J. Biol. Chem. 270(12): 12953-12956 (1995). Alternatively, the compounds can be evaluated for their ability to displace radiolabeled BRL 49653 from a PPARγ-GST fusion protein as follows:
PPARγ-GST fusion protein (prepared according to standard procedures), [^3H]-BRL 49653 having 50 Ci/mmol specific activity, Polyfiltronics Unifilter 350 filtration plate and glutathione-Sepharose® beads (from Pharmacia: washed twice with 10× binding buffer in which BSA and DTI can be left out).
Binding buffer (10 mM Tris-HCl, pH 8.0, 50 mM KCl, 10 mM DTT, 0.02% BSA and 0.0 1% NP-40) is added in 80-μL amounts to the wells of the filtration plate. The test compound is then added in 10 μL of DMSO. The PPARγ-GST fusion protein and radiolabeled BRL compound are premixed in binding buffer containing 10 mM DTT and added in 10-μL amounts to the wells of the plate to provide final concentrations of 1 µg/well of PPARγ-GST fusion protein and 10 nM [^3H]-BRL 49653 compound. The plate is incubated for 15 min. Glutathione-agarose bead is added in 50 μL of binding buffer, and the plate is vigorously shaken for one hour. The plate is washed four times with 200 μL/well of binding buffer (without BSA and DTT). The bottom of the plate is sealed and 200 μL/well of scintillation cocktail is added. The top of the plate is then sealed and the radioactivity is determined.
IC50 values are defined as the concentration of test compounds required to reduce by 50% the specific binding of [^3H]-BRL 49653 and are represented by (+)<30 μM; (++)<10 μM; (+++)<1 μM.

SMILES	IC50 [µM]
O=S(=O)(Nc1ccc(Sc2ccc(S(=O)(=O)N3CCOCC3)cc2)c(C(F)(F)F)n1)c1ccc(C(F)(F)F)cc1Cl [Compound 109, 2-Chloro-N-{5-[4-(morpholine-4-sulfonyl)-phenylsulfanyl]-6-trifluoromethyl-pyridin-2-yl}-4-trifluoromethyl-benzenesulfonamide]	< 10
CNc1nc(NS(=O)(=O)c2ccc(Cl)cc2Cl)ncc1Sc1ccc2ccccc2c1 [Compound 25, 2,4-Dichloro-N-[4-methylamino-5-(naphthalen-2-ylsulfanyl) -pyrimidin-2-yl]-benzenesulfonamide]	< 30
CC(C)NC(=O)c1nc(NS(=O)(=O)c2ccc(Cl)cc2Cl)ccc1Sc1ccc(S(=O)(=O)N2CCCCC2)cc1 [Compound 85, 6-(2,4-Dichloro-benzenesulfonylamino)-3-[4-(piperidine-1-sulfonyl)-phenylsulfanyl]-pyridine-2-carboxylic acid isopropylamide]	< 1
CC(C)CCNc1nc(NS(=O)(=O)c2ccc(Cl)cc2Cl)ncc1Sc1ccc(S(=O)(=O)N2CCCCC2)cc1 [Compound 21, 2,4-Dichloro-N-{4-(3-methyl-butylamino)-5-[4-(piperidine-1-sulfonyl)-phenylsulfanyl]-pyrimidin-2-yl}-benzenesulfonamide]	< 10
Cc1cc(S(=O)(=O)Nc2cc(C)c(Sc3ccc(S(=O)(=O)N4CCCCC4)cc3)nn2)c(Cl)cc1Cl [Compound 138, 2,4-Dichloro-5-methyl-N-{5-methyl-6-[4-(piperidine-1-sulfonyl)-phenylsulfanyl]-pyridazin-3-yl}-benzenesulfonamide]	< 1
O=C(c1cc(NS(=O)(=O)c2ccc(Cl)cc2Cl)ncc1Sc1ccc(S(=O)(=O)N2CCCCC2)cc1)C1CC1 [Compound 128, 2,4-dichloro-N-{4-cyclopropanecarbonyl-5-[4-(piperidine-1-sulfonyl)-phenylsulfanyl]-pyridin-2-yl}-benzenesulfonamide]	< 1

The remaining lines, values ahead:

IC50 [µM]	SMILES
< 1	CC(C)CC(=O)c1nc(NS(=O)(=O)c2ccc(Cl)cc2Cl)ccc1Sc1ccc(S(=O)(=O)N2CCOCC2)cc1 [Compound 80, 2,4-Dichloro-N-{6-(3-methyl-butyryl)-5-[4-(morpholine-4-sulfonyl)-phenylsulfanyl]-pyridin-2-yl}-benzenesulfonamide]
< 1	COCCNc1nc(NS(=O)(=O)c2ccc(Cl)cc2Cl)ncc1Sc1ccc(S(=O)(=O)N2CCCCC2)cc1 [Compound 16, 2,4-Dichloro-N-{4-(2-methoxy-ethylamino)-5-[4-(piperidine-1-sulfonyl)-phenylsulfanyl]-pyrimidin-2-yl}-benzenesulfonamide]
< 1	CCCCc1cc(NS(=O)(=O)c2ccc(Cl)cc2Cl)nnc1Sc1ccc(S(=O)(=O)N2CCOCC2)cc1 [Compound 131, 3-(2′,4′-dichloro)phenylsulfonylamino-5-n-butyl-6-(4″-N-morpholinesulfonyl)phenylthiopyridazine]
< 1	CCCCc1cc(NS(=O)(=O)c2ccc(Cl)cc2Cl)nnc1Sc1ccc(S(=O)(=O)N2CCCCC2)cc1 [Compound 132, 3-(2′,4′-dichloro)phenylsulfonylamino-5-n-butyl-6-(4″-N-piperidinesulfonyl)phenylthiopyridazine]
< 1	CCCCNc1nc(NS(=O)(=O)c2ccc(Cl)cc2Cl)ncc1Sc1ccc(S(=O)(=O)N2CCCCC2)cc1 [Compound 14, N-{4-Butylamino-5-[4-(piperidine-1-sulfonyl)-phenylsulfanyl]-pyrimidin-2-yl}-2,4-dichloro-benzenesulfonamide]
< 1	O=S(=O)(Nc1ccc(Sc2ccc(S(=O)(=O)N3CCCCC3)cc2)cn1)c1ccc(Cl)cc1Cl [Compound 68, 2,4-Dichloro-N-{5-[4-(piperidine-1-sulfonyl)-phenylsulfanyl]-pyridin-2-yl}-benzenesulfonamide]
< 1	CCCCc1nc(NS(=O)(=O)c2ccc(C(F)(F)F)cc2Cl)ncc1Sc1ccc(S(=O)(=O)N2CCCCC2)cc1 [Compound 46, N-{4-Butyl-5-[4-(piperidine-1-sulfonyl)-phenylsulfanyl]-pyrimidin-2-yl}-2-chloro-4-trifluoromethyl-benzenesulfonamide]
